The results in this text go back to patent US7638639B2, “Substituted pyrrolidine and related compounds” (Theravance, Inc., priority 2003, dated 2009).

A word on the Ki: it is the equilibrium dissociation constant of an inhibitor or competing ligand from its target.

Test [1] has as its target T1, hM2 muscarinic receptor subtype (Homo sapiens, UniProt P08172).
T1 construct: expressed in transfected cells
T1 sequence (P08172 1-466): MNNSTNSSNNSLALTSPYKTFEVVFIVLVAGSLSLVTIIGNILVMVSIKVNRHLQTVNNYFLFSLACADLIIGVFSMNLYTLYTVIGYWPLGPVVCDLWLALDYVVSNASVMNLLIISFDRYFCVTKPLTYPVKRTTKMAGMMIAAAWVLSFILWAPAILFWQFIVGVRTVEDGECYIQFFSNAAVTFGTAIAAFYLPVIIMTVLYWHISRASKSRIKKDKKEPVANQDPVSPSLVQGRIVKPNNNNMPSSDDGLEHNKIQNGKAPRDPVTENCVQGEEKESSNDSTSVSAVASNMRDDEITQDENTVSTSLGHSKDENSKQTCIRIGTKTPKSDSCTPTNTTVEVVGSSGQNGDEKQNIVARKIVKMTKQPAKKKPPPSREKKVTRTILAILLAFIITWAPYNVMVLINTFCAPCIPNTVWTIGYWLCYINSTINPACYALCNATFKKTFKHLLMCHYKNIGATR
The experiment in a line: Radioligand binding assay ([3H]-NMS displacement), hM2. The settings on record: for Ki: CHO cell membranes, [3H]-NMS 1 nM, read-out: hM2 binding affinity (Ki); for Δ hM2: change in binding affinity relative to compound of the invention: ratio of hM2 Ki values. How it is done: (§1) A. Membrane Preparation from Cells Expressing hM1, hM2, hM3 and hM4 Muscarinic Receptor Subtypes
(§2) CHO (Chinese hamster ovary) cell lines stably expressing cloned human hM1, hM2, hM3 and hM4 muscarinic receptor subtypes, respectively, were grown to near confluency in medium consisting of HAM's F-12 supplemented with 10% FBS (Fetal Bovine Serum) and 250 μg/mL Geneticin. The cells were grown in a 5% CO2, 37° C. incubator and lifted with 2 mm EDTA in dPBS. Cells were collected by 5 minute centrifugation at 650×g, and cell pellets were either stored frozen at −80° C. or membranes were prepared immediately. For membrane preparation, cell pellets were resuspended in lysis buffer and homogenized with a Polytron PT-2100 tissue disrupter (Kinematica AG; 20 seconds×2 bursts). Crude membranes were centrifuged at 40,000×g for 15 minutes at 4° C. The membrane pellet was then resuspended with resuspension buffer and homogenized again with the Polytron tissue disrupter. The protein concentration of the membrane suspension was determined by the method described in Lowry, O. et al., 1951, […]: 193, 265. All membranes were stored frozen in aliquots at −80° C. or used immediately. Aliquots of prepared hM5 receptor membranes were purchased directly from Perkin Elmer and stored at −80° C. until use.
(§3) B. Radioligand Binding Assay on Muscarinic Receptor Subtypes hM1, hM2, hM3, hM4 and hM5
(§4) Radioligand binding assays were performed in 96-well microtiter plates in a total assay volume of 100 μL. CHO cell membranes stably expressing either the hM1, hM2, hM3, hM4 or hM5 muscarinic subtype were diluted in assay buffer to the following specific target protein concentrations (μg/well): 10 μg for hM1, 10-15 μg for hM2, 10-20 μg for hM3, 10-20 μg for hM4, and 10-12 μg for hM5. The membranes were briefly homogenized using a Polytron tissue disruptor (10 seconds) prior to assay plate addition. Saturation binding studies for determining KD values of the radioligand were performed using L-[N-methyl-3H]scopolamine methyl chloride ([^3H]-NMS) (TRK666, 84.0 Ci/mmol, Amersham Pharmacia Biotech, Buckinghamshire, England) at concentrations ranging from 0.001 nM to 20 nM. Displacement assays for determination of Ki values of test compounds were performed with [^3H]-NMS at 1 nM and eleven different test compound concentrations. The test compounds were initially dissolved to a concentration of 400 μM in dilution buffer and then serially diluted 5× with dilution buffer to final concentrations ranging from […] to […]. The addition order and volumes to the assay plates were as follows: 25 μL radioligand, 25 μL diluted test compound, and 50 μL membranes. Assay plates were incubated for 60 minutes at 37° C. Binding reactions were terminated by rapid filtration over GF/B glass fiber filter plates (PerkinElmer Inc., Wellesley, Mass.) pre-treated in 1% BSA. Filter plates were rinsed three times with wash buffer (10 mm HEPES) to remove unbound radioactivity. Plates were then air dried, and 50 μL Microscint-20 liquid scintillation fluid (PerkinElmer Inc., Wellesley, Mass.) was added to each well. The plates were then counted in a PerkinElmer Topcount liquid scintillation counter (PerkinElmer Inc., Wellesley, Mass.). Binding data were analyzed by nonlinear regression analysis with the GraphPad Prism Software package (GraphPad Software, Inc., San Diego, Calif.) using the one-site competition model. Ki values for test compounds were calculated from observed IC50 values and the KD value of the radioligand using the Cheng-Prusoff equation (Cheng Y; Prusoff W H. (1973) Biochemical Pharmacology, 22(23):3099-108). Ki values were converted to pKi values to determine the geometric mean and 95% confidence intervals. These summary statistics were then converted back to Ki values for data reporting.

In test [2] the target is T2, hM3 muscarinic receptor subtype (Homo sapiens, UniProt P20309).
T2 construct: expressed in transfected cells
The experiment in a line: Radioligand binding assay ([3H]-NMS displacement), hM3. The settings on record: for Δ hM3: change in binding affinity relative to compound of the invention: ratio of hM3 Ki values. How it is done: as §1, §2, §3, §4

The mark [3] stands for this setting: CHO cell membranes, [3H]-NMS 1 nM, read-out: hM3 binding affinity (Ki).
The mark [4] stands for this setting: radioligand displacement, read-out: Ki value for hM3.

Structures are written as SMILES. Like-named read-outs stand apart in the source and are kept apart here.

T2 sequence (P20309 whole entry): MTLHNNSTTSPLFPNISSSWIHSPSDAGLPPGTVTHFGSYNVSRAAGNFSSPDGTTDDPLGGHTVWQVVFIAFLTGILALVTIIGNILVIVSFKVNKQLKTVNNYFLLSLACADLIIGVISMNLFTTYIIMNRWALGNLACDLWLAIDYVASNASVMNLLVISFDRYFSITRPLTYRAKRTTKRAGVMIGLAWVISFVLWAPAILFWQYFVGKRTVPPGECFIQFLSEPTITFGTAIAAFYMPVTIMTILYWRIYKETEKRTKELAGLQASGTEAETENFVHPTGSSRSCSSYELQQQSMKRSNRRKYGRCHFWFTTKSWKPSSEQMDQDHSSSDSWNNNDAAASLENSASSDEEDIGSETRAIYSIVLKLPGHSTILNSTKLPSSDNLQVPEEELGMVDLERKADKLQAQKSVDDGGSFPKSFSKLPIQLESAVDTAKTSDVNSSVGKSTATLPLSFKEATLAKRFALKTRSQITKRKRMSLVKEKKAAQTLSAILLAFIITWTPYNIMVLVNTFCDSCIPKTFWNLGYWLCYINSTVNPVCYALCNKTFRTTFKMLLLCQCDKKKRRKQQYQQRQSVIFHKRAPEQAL

As to `CN(C)CCCCCCCCN1CC[C@@H](C(C(N)=O)(c2ccccc2)c2ccccc2)C1` [Comp. Ex. A, 2-[(S)-1-(8-Dimethylaminooctyl)pyrrolidin-3-yl]-2,2-diphenylacetamide, reference compound], the inhibition constant Ki in test [1] stood at 18 nM; in test [2] (setting [3]), 2.5 nM. The “Δ hM2: change in binding affinity relative to compound of the invention” value in test [1] is “×39”. The “Δ hM3: change in binding affinity relative to compound of the invention” value in test [2] is recorded as “×52”.

Take `CN(C)CCCCCCCCCN1CC[C@@H](C(C(N)=O)(c2ccccc2)c2ccccc2)C1` [Comp. Ex. B, 2-[(S)-1-(9-Dimethylaminononyl)pyrrolidin-3-yl]-2,2-diphenylacetamide, reference compound]: the inhibition constant Ki in test [1] turned out to be 120 nM; in test [2] (setting [3]), 25 nM.

Take `CC(CCCCCCCN1CC[C@@H](C(C(N)=O)(c2ccccc2)c2ccccc2)C1)N(C)CCO` (stereo partly drawn) [Comp. Ex. C, 2-{(S)-1-[8-N-(2-Hydroxyethyl)-N-methylaminononyl]pyrrolidin-3-yl}-2,2-diphenylacetamide, reference compound]: the results for the inhibitory constant (Ki) in test [1] and in test [2] (setting [3]) were 83 nM and 73 nM, respectively.

As for `NCCCCCCCCN1CC[C@@H](C(C(N)=O)(c2ccccc2)c2ccccc2)C1` [Comp. Ex. D, 2-[(S)-1-(8-Aminooctyl)pyrrolidin-3-yl]-2,2-diphenylacetamide, reference compound], the Ki was 150 nM in test [1] and 50 nM in test [2] (setting [3]).

Consider `NC(=O)C(c1ccccc1)(c1ccccc1)[C@@H]1CCN(CCCCCCCCNCCO)C1` [Example 8, 2-{(S)-1-[8-(2-Hydroxyethyl)aminooctyl]pyrrolidin-3-yl}-2,2-diphenylacetamide], for which, in test [1], the Ki amounted to 13 nM and the “Δ hM2: change in binding affinity relative to compound of the invention” value was “×6.3”. The inhibition constant (Ki) in test [2] (setting [3]) stood at 5.1 nM. In test [2], the “Δ hM3: change in binding affinity relative to compound of the invention” value was “×14”.

As to `CNCCCCCCCCCN1CC[C@@H](C(C(N)=O)(c2ccccc2)c2ccccc2)C1` [Example 14, 2-[(S)-1-(9-Methylaminnonyl)pyrrolidin-3-yl]-2,2-diphenylacetamide], the inhibitory constant (Ki) in test [1] is 1.7 nM; in test [2] (setting [3]), 0.66 nM; in test [2] (setting [4]), below 50 nM. For the same compound, the “Δ hM2: change in binding affinity relative to compound of the invention” value in test [1] is “×70”. Also, in test [2], the “Δ hM3: change in binding affinity relative to compound of the invention” value is “×37”.

Consider `NC(=O)C(c1ccccc1)(c1ccccc1)[C@@H]1CCN(CCCCCCCCCNCc2ccccc2)C1` [Example 26, 2-[(S)-1-(9-Benzylaminononyl)pyrrolidin-3-yl]-2,2-diphenylacetamide], for which the Ki in test [2] (setting [4]) is below 50 nM.

As for `CNCCCCCCCCN1CC[C@H](C(C(N)=O)(c2ccccc2)c2ccccc2)C1` [Example 27, 2-[(R)-1-(8-Methylaminooctyl)pyrrolidin-3-yl]-2,2-diphenylacetamide], the inhibition constant Ki in test [2] (setting [4]) was below 50 nM.

Take `NC(=O)C(c1ccccc1)(c1ccccc1)[C@H]1CCN(CCCCCCCCNCc2ccccc2)C1` [Example 39, 2-[(R)-1-(8-Benzylaminooctyl)pyrrolidin-3-yl]-2,2-diphenylacetamide]: in test [2] (setting [4]), the Ki is below 50 nM.
